Test [1] can be described thus: Tested for anticonvulsant effects on audiogenic seizures in DBA/2 mice; administered intra peritonealy. The class given is functional. To be noted: Mus musculus.
Test [2] in a line: Inhibition of low-threshold (T-type) Calcium [Ca2+] currents in primary cultured rat cerebrocortical neurons using whole-cell voltage-clamp recording technique. The class given is functional.
Test [3] has as its target Sodium channel alpha subunits; brain (Types I, II, III) (Rattus norvegicus, UniProt P04775+P04774+P08104). The test can be described thus: Inhibition of veratridine-induced depolarization of rat cerebrocortical synaptosomes using a membrane potential sensitive fluorescent dye, rhodamine 6G. The class given is functional, subcellular.
The next test has as its target D(2) dopamine receptor (Rattus norvegicus, UniProt P61169). Briefly: Concentration required for 50% inhibitory effect on Dopamine receptor D2 determined in competition experiments with [3H]raclopride.
Test [4] is filed under the species Rattus norvegicus. The test can be described thus: Concentration required for 50% inhibitory effect on automatic oxidation in plasma membrane of rat brain homogenates by measuring malondialdehyde and 4-hydroxyalkenals using peroxidized lipid colorimetric assay kit. In kind it is functional.
For test [5], the species on record is Rattus norvegicus. Briefly: Concentration required for 50% inhibitory effect on automatic oxidation in plasma membrane of rat brain homogenates by measuring malondialdehyde and 4-hydroxyalkenals using peroxidized lipid colorimetric assay kit. The class given is functional.

The record followed here is ChEMBL document CHEMBL1133636, “Discovery of (2S)-1-(4-amino-2,3,5- trimethylphenoxy)-3-[4-[4-(4- fluorobenzyl)phenyl]-1-piperazinyl]-2-propanol dimethanesulfonate (SUN N8075): a dual Na(+) and Ca(2+) channel blocker with antioxidant activity” (J Med Chem, 2000).

pIC50: −log10 of the molar value.

D(2) dopamine receptor, sequence (P61169 whole entry): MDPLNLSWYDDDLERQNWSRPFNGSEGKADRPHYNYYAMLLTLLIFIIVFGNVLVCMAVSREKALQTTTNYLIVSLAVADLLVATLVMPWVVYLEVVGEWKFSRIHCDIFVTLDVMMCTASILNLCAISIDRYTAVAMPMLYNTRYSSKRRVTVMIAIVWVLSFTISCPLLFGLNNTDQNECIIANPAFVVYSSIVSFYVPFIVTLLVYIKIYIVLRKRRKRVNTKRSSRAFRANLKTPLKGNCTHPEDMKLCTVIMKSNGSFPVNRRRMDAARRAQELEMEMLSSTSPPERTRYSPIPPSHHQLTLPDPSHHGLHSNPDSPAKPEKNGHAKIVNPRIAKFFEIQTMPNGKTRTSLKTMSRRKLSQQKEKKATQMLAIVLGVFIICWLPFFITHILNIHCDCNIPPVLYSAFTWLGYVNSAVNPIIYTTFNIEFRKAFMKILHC

Consider `CC(C)c1ccc(CN2CCN(C(c3ccc(F)cc3)c3ccc(F)cc3)CC2)c(=O)c(NCCO)c1`, for which it took a dose of 14.5 mg/kg to reach the 50% effect level in test [1] (ED50). The pIC50 (in general, the negative decadic logarithm of the IC50, by convention in mol/L) is 6.52 in test [2], 5.77 on D(2) dopamine receptor and 4.70 in the test listed under Rattus norvegicus [4]. Further, the IC50 (commonly the concentration needed to halve the response being measured) in test [3] was 360 nM.
For the compound `CS(=O)(=O)O.CS(=O)(=O)O.Cc1cc(OC[C@@H](O)CN2CCN(c3ccc(Cc4ccc(F)cc4)cc3)CC2)c(C)c(C)c1N`, in test [1], the ED50 (in general, the dose that gives a 50% effect, or the effect in half of the subjects) came out at 6.5 mg/kg. Also, the pIC50 is 5.70 in test [2], less than 5.00 at D(2) dopamine receptor and 6.51 in the test listed under Rattus norvegicus [4]. In test [3], this compound came in with a 50% inhibitory concentration (IC50) of 420 nM.
`Fc1ccc(C(c2ccc(F)cc2)N2CCN(C/C=C/c3ccccc3)CC2)cc1` [FLUNARIZINE] yielded a 50% effective dose (ED50) in test [1] of 11.4 mg/kg. Further, the negative logarithm of the IC50 (pIC50) in test [2] is 5.66.
Regarding `Cc1c(C)c2c(c(C)c1O)CC[C@@](C)(CCC[C@H](C)CCC[C@H](C)CCCC(C)C)O2` [ALPHA-TOCOPHEROL], in the test listed under Rattus norvegicus [5], the negative-log IC50 (pIC50) is less than 4.00.
